In publication PMC10714399, “Open Source Antibiotics: Simple Diarylimidazoles Are Potent against Methicillin-Resistant Staphylococcus aureus” (ACS Infectious Diseases, 2023):
Values after ≈ are worked out from the molar mass of the structure shown.

system: Staphylococcus aureus NCTC 13373 (mecA-positive; methicillin-resistant); test: In vitro antibacterial activity, MIC (UCL School of Pharmacy assay), MRSA; type: cell-based; details: not given
Summary of the method: (§1)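 Each organism was taken from overnight tryptone soya agar, suspended in PBS at A600 0.1, diluted 1:100 in isosensitest broth and added to serially diluted compound (32 to 0.03 μg/mL).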

| MRSA MIC [µg/mL] | Structure (SMILES) | activity against MRSA, in words |
| --- | --- | --- |
|  | OC1CCn2c1nc(-c1ccccn1)c2-c1ccc2occc2c1 (stereo not drawn) [compound 997] | inactive |
| 8 | COc1ccc2nc(-c3ccccn3)c(N(C)c3cc(F)cc(F)c3)n2c1 [compound 998] |  |
| 2 | COc1ccnc(-c2nc3cc(OC)ccn3c2N(C)c2ccc(F)cc2)c1 [compound 1000] |  |

same assay, conditions: Staphylococcus aureus, 16 h; read-out: MRSA MIC

| MIC [µg/mL] | Structure (SMILES) |
| --- | --- |
| > 32 | OC1CCn2c1nc(-c1ccccn1)c2-c1ccc2occc2c1 (stereo not drawn) [compound 997] |

same assay, conditions: Staphylococcus aureus, UCL; read-out: MRSA MIC (UCL)

| Structure (SMILES) | MIC [µg/mL] |
| --- | --- |
| COc1ccc2nc(-c3ccccn3)c(N(C)c3ccc(F)cc3)n2c1 [OSA_000980] | 4 (≈ 11.5 µM) |
| OC1CCn2c1nc(-c1ccccn1)c2-c1ccc2occc2c1 (stereo not drawn) [compound 997] | > 32 |

Continued, values first:

| MIC [µg/mL] | Structure (SMILES) |
| --- | --- |
| 2 (≈ 5.58 µM) | Fc1ccc(N(CC2CC2)c2c(-c3ccccn3)nc3ccccn23)cc1 [OSA_000979] |
| 2 (≈ 6.02 µM) | CCN(c1ccc(F)cc1)c1c(-c2ccccn2)nc2ccccn12 [OSA_000981] |
| 2 (≈ 5.77 µM) | CCCN(c1ccc(F)cc1)c1c(-c2ccccn2)nc2ccccn12 [OSA_000982] |

same assay, conditions: Staphylococcus aureus; read-out: MRSA MIC

| MIC [µg/mL] | Structure (SMILES) |
| --- | --- |
| > 32 | OC1CCn2c1nc(-c1ccccn1)c2-c1ccc2occc2c1 (stereo not drawn) [compound 997] |

system: S. aureus ATCC 25923 (methicillin-susceptible); test: In vitro antibacterial activity, MIC (UCL), MSSA; type: cell-based, Staphylococcus aureus; details: not given
Summary of the method: as §1

| MSSA MIC [µg/mL] | Structure (SMILES) |
| --- | --- |
| 8 | COc1ccc2nc(-c3ccccn3)c(N(C)c3cc(F)cc(F)c3)n2c1 [compound 998] |
| 8 | COc1ccnc(-c2nc3cc(OC)ccn3c2N(C)c2ccc(F)cc2)c1 [compound 1000] |

same assay, conditions: Staphylococcus aureus; read-out: MSSA MIC

| MIC [µg/mL] | Structure (SMILES) |
| --- | --- |
| > 32 | OC1CCn2c1nc(-c1ccccn1)c2-c1ccc2occc2c1 (stereo not drawn) [compound 997] |

same assay, conditions: Staphylococcus aureus; read-out: MSSA MIC (UCL)

| Structure (SMILES) | MIC [µg/mL] |
| --- | --- |
| COc1ccc2nc(-c3ccccn3)c(N(C)c3ccc(F)cc3)n2c1 [OSA_000980] | 4 (≈ 11.5 µM) |
| OC1CCn2c1nc(-c1ccccn1)c2-c1ccc2occc2c1 (stereo not drawn) [compound 997] | > 32 |

The next lines start with the values.

| MIC [µg/mL] | Structure (SMILES) |
| --- | --- |
| 2 (≈ 5.58 µM) | Fc1ccc(N(CC2CC2)c2c(-c3ccccn3)nc3ccccn23)cc1 [OSA_000979] |
| 2 (≈ 6.02 µM) | CCN(c1ccc(F)cc1)c1c(-c2ccccn2)nc2ccccn12 [OSA_000981] |
| 2 (≈ 5.77 µM) | CCCN(c1ccc(F)cc1)c1c(-c2ccccn2)nc2ccccn12 [OSA_000982] |

system: Enterococcus faecalis ATCC 51299 (vanA-positive; vancomycin-resistant); test: In vitro antibacterial activity, MIC (UCL), VRE; type: cell-based; details: not given
Method: Staphylococcus aureus NCTC 13373 (mecA-positive; methicillin-resistant, NCTC 13373) was supplied by the National Collection of Type Cultures (NCTC), Public Health England, United Kingdom. Other organisms, S. aureus ATCC 25923 (methicillin-susceptible) and Enterococcus faecalis ATCC 51299 (vanA-positive; vancomycin-resistant), were obtained from the American Type Culture Collection (ATCC) via LGC Standards, UK. A suspension of each organism was prepared from an overnight plate culture (tryptone soya agar) in phosphate-buffered saline (PBS) and adjusted to an absorbance reading at 600 nm of 0.1, which is approximately equivalent to 1 × 10^8 colony-forming units (CFU) per mL. The cultures were further diluted 1:100 in isosensitest broth (Oxoid, United Kingdom) before 100 μL was used to inoculate each well of a 96-well plate that contained diluted samples of the OSA series. Compounds were evaluated over a 2-fold dilution range from 32 to 0.03 μg/mL. Stocks of the samples were prepared in 100% DMSO at […] before being diluted in isosenstitest broth. The highest concentration of DMSO present was 2%, which has been previously shown not to inhibit the growth of the microorganisms (data not shown). […] Vancomycin was used as a quality control compound.

| VRE MIC [µg/mL] | Structure (SMILES) |
| --- | --- |
| 32 | COc1ccc2nc(-c3ccccn3)c(N(C)c3cc(F)cc(F)c3)n2c1 [compound 998] |
| 8 | COc1ccnc(-c2nc3cc(OC)ccn3c2N(C)c2ccc(F)cc2)c1 [compound 1000] |

same assay, conditions: read-out: VRE MIC

| MIC [µg/mL] | Structure (SMILES) |
| --- | --- |
| > 32 | OC1CCn2c1nc(-c1ccccn1)c2-c1ccc2occc2c1 (stereo not drawn) [compound 997] |

same assay, conditions: read-out: VRE MIC (UCL)

| Structure (SMILES) | MIC [µg/mL] |
| --- | --- |
| COc1ccc2nc(-c3ccccn3)c(N(C)c3ccc(F)cc3)n2c1 [OSA_000980] | 8 (≈ 23 µM) |
| OC1CCn2c1nc(-c1ccccn1)c2-c1ccc2occc2c1 (stereo not drawn) [compound 997] | > 32 |

Results, then the compound that gave them:

| MIC [µg/mL] | Structure (SMILES) |
| --- | --- |
| 4 (≈ 11.2 µM) | Fc1ccc(N(CC2CC2)c2c(-c3ccccn3)nc3ccccn23)cc1 [OSA_000979] |
| 8 (≈ 24.1 µM) | CCN(c1ccc(F)cc1)c1c(-c2ccccn2)nc2ccccn12 [OSA_000981] |
| 4 (≈ 11.5 µM) | CCCN(c1ccc(F)cc1)c1c(-c2ccccn2)nc2ccccn12 [OSA_000982] |

system: VSE; test: In vitro antibacterial activity, MIC, VSE; type: cell-based; details: not given

| VSE MIC [µg/mL] | Structure (SMILES) |
| --- | --- |
| 16 | COc1ccc2nc(-c3ccccn3)c(N(C)c3cc(F)cc(F)c3)n2c1 [compound 998] |
| 8 | COc1ccnc(-c2nc3cc(OC)ccn3c2N(C)c2ccc(F)cc2)c1 [compound 1000] |

same assay, conditions: read-out: VSE MIC

| MIC [µg/mL] | Structure (SMILES) |
| --- | --- |
| > 32 | OC1CCn2c1nc(-c1ccccn1)c2-c1ccc2occc2c1 (stereo not drawn) [compound 997] |

same assay, conditions: read-out: VSE MIC (UCL)

| MIC [µg/mL] | Structure (SMILES) |
| --- | --- |
| > 32 | OC1CCn2c1nc(-c1ccccn1)c2-c1ccc2occc2c1 (stereo not drawn) [compound 997] |

system: not listed separately; test: Aqueous solubility; type: physicochemical; details: NEU
Source text: To guide our initial SAR exploration work, we obtained liver microsomal intrinsic clearance data for 5 of the 18 compounds assayed by CO-ADD (Supporting Information - CDCO Report and Supporting Information - Biology). We then acquired intrinsic clearance (CLint), plasma protein binding (PPB), and solubility data on further compounds throughout the SAR campaign (Supporting Information - Biology, Tables S3 and S4). […] The more polar compounds (lower LogD) had reduced PPB and were more metabolically stable.
(§2) Table S4. ADME and Pharmacokinetics: compounds only appearing in the Supplementary […]
(§3) MRSA Aqueous HLM CLint Rat Hep CLint
(§4) Cmpd MIC Solubility Human PPB (%) (µL/min/mg (µL/min/10x6 LogD7.4
(§5) (µg/mL) (µM) protein) cells)
(§6) ADME and toxicity for compounds were measured according to procedures outlined in the manuscript submitted in parallel to this one;2 other procedures were used for those compounds analysed by Monash University (in vitro ADME) or UCL (toxicity), both described in the main

| Aqueous Solubility (NEU) [µM] | Structure (SMILES) |
| --- | --- |
| 3 | CCCN(c1ccc(F)cc1)c1c(-c2ccccn2)nc2ccccn12 [OSA_000982] |

same assay, conditions: thermodynamic from solid; NEU; read-out: Aqueous Solubility (NEU)

| solubility [µM] | Structure (SMILES) |
| --- | --- |
| 2 (≈ 0.717 µg/mL) | Fc1ccc(N(CC2CC2)c2c(-c3ccccn3)nc3ccccn23)cc1 [OSA_000979] |
| 17 (≈ 5.92 µg/mL) | COc1ccc2nc(-c3ccccn3)c(N(C)c3ccc(F)cc3)n2c1 [OSA_000980] |
| 31 (≈ 10.3 µg/mL) | CCN(c1ccc(F)cc1)c1c(-c2ccccn2)nc2ccccn12 [OSA_000981] |

system: not listed separately; test: Human plasma protein binding (PPB); type: in vitro ADME; details: human, plasma, human plasma, NEU; read-out: Human PPB (NEU) (converted)
Source text: (§7) To guide our initial SAR exploration work, we obtained liver microsomal intrinsic clearance data for 5 of the 18 compounds assayed by CO-ADD (Supporting Information - CDCO Report and Supporting Information - Biology). We then acquired intrinsic clearance (CLint), plasma protein binding (PPB), and solubility data on further compounds throughout the SAR campaign (Supporting Information - Biology, Tables S3 and S4).
as §2, §3, §4, §5, §6

| fraction unbound | Structure (SMILES) |
| --- | --- |
| 0.0067 | Fc1ccc(N(CC2CC2)c2c(-c3ccccn3)nc3ccccn23)cc1 [OSA_000979] |
| 0.02 | COc1ccc2nc(-c3ccccn3)c(N(C)c3ccc(F)cc3)n2c1 [OSA_000980] |
| 0.022 | CCN(c1ccc(F)cc1)c1c(-c2ccccn2)nc2ccccn12 [OSA_000981] |
| 0.0073 | CCCN(c1ccc(F)cc1)c1c(-c2ccccn2)nc2ccccn12 [OSA_000982] |

system: not listed separately; test: Human liver microsome intrinsic clearance; type: in vitro ADME; details: human liver microsomes, NEU
Source text: as §7, §2, §3, §4, §5, §6

| HLM CLint (NEU) [uL/min/mg protein] | Structure (SMILES) |
| --- | --- |
| 251 | COc1ccc2nc(-c3ccccn3)c(N(C)c3ccc(F)cc3)n2c1 [OSA_000980] |
| 180 | CCN(c1ccc(F)cc1)c1c(-c2ccccn2)nc2ccccn12 [OSA_000981] |
| 61.8 | CCCN(c1ccc(F)cc1)c1c(-c2ccccn2)nc2ccccn12 [OSA_000982] |

same assay, conditions: human liver microsomes, NEU; read-out: HLM CLint (NEU)

| microsomal CLint [µL/min/mg] | Structure (SMILES) |
| --- | --- |
| 105 | Fc1ccc(N(CC2CC2)c2c(-c3ccccn3)nc3ccccn23)cc1 [OSA_000979] |

system: not listed separately; test: Rat hepatocyte intrinsic clearance; type: in vitro ADME; details: rat hepatocytes, NEU
Source text: as §7, §2, §3, §4, §5, §6

| Rat Hep CLint (NEU) [uL/min/10x6 cells] | Structure (SMILES) |
| --- | --- |
| 141 | Fc1ccc(N(CC2CC2)c2c(-c3ccccn3)nc3ccccn23)cc1 [OSA_000979] |
| 108 | CCCN(c1ccc(F)cc1)c1c(-c2ccccn2)nc2ccccn12 [OSA_000982] |

same assay, conditions: rat hepatocytes, NEU; read-out: Rat Hep CLint (NEU)

| hepatocyte CLint [µL/min/1e6 cells] | Structure (SMILES) |
| --- | --- |
| > 300 | COc1ccc2nc(-c3ccccn3)c(N(C)c3ccc(F)cc3)n2c1 [OSA_000980] |
| 148 | CCN(c1ccc(F)cc1)c1c(-c2ccccn2)nc2ccccn12 [OSA_000981] |

system: MRC-5SV2 (human lung fibroblast cell line); test: Toxicity against MRC-5SV2; type: cell-based; details: MRC5 cells
Method: as §6

| Structure (SMILES) | MRC5 TC50 [µM] |
| --- | --- |
| Fc1ccc(N(CC2CC2)c2c(-c3ccccn3)nc3ccccn23)cc1 [OSA_000979] | 7.8 |
| COc1ccc2nc(-c3ccccn3)c(N(C)c3ccc(F)cc3)n2c1 [OSA_000980] | 2 |
| CCN(c1ccc(F)cc1)c1c(-c2ccccn2)nc2ccccn12 [OSA_000981] | 4.9 |
| CCCN(c1ccc(F)cc1)c1c(-c2ccccn2)nc2ccccn12 [OSA_000982] | 4.3 |

system: PMM (primary mouse macrophages); test: Toxicity against PMM; type: cell-based; details: PMM
Method: as §6

| Structure (SMILES) | PMM TC50 [µM] |
| --- | --- |
| Fc1ccc(N(CC2CC2)c2c(-c3ccccn3)nc3ccccn23)cc1 [OSA_000979] | 4 |
| COc1ccc2nc(-c3ccccn3)c(N(C)c3ccc(F)cc3)n2c1 [OSA_000980] | 8 |
| CCN(c1ccc(F)cc1)c1c(-c2ccccn2)nc2ccccn12 [OSA_000981] | 8 |
| CCCN(c1ccc(F)cc1)c1c(-c2ccccn2)nc2ccccn12 [OSA_000982] | 2 |
